Counter-ions that a name gives are not always drawn.
Biological target: T1, MPO (purified from human polynuclear leukocytes) (Homo sapiens, UniProt P05164)
T1 construct: purified from human polynuclear leukocytes; purchased Calbiochem/EMD Biosciences; host or cells: human polynuclear leukocytes (natural source)
Assay: MPO Amplex Red Activity Assay
Format: biochemical
Conditions: Table 1, 2 μM H2O2, pH 7.4
Method: MPO Amplex Red Activity Assay.
MPO peroxidase activity was measured by monitoring the formation of resorufin generated from the oxidation of Amplex Red (10-Acetyl-3,7-dihydroxyphenoxazine) (Invitrogen, Carlsbad, Calif.) by MPO (Gomes, Fernandes et al. 2005). Assay mixtures (100 μL total volume) contained 50 mM NaPi pH 7.4, 150 mM NaCl, 1 mM DTPA (diethylenetriaminepentaacetic acid), 2% DMSO, 2 μM H2O2, 30 μM Amplex Red and the reaction was initiated by the addition of […] (purified from human polynuclear leukocytes and purchased from Calbiochem/EMD Biosciences, Gibbstown, N.J.). All assays were performed in 96-well, half-area, black, nonbinding surface, polystyrene plates (Corning) and the production of resorufin (excitation 530 nm, emission 580 nm) was monitored every 20 sec on a Spectramax M2 Microplate Spectrophotometer (Molecular Devices, Palo Alto, Calif.) equipped with Softmax Pro software (Molecular Devices, Palo Alto, Calif.). Reactions to determine the background reaction rate consisted of all assay components and 4 μL of 500 unit/mL bovine catalase (Sigma) in 50 mM KPi pH 7.0. The background rate was subtracted from each reaction progress curve. All data was analyzed using non-linear regression analysis in Microsoft Excel and Kaleidagraph (Synergy Software).
To determine inhibitor potency (kinact/KI) against MPO, the first 600 sec of the reaction progress curves were fit to equation 1, where Vo is the initial rate in RFU/sec and t is time in seconds, to obtain the first order rate constant for enzyme inactivation (kobs) at each inhibitor concentration.
[formula] Equation 1 is a variation of the standard equation for slow binding inhibition where the steady state velocity (Vs) is set to zero. Each kobs value was corrected for auto-inactivation of the enzyme by subtracting the kobs value for the uninhibited reaction. The corrected kobs values were then plotted versus inhibitor concentration ([I]) and fit to equation 2
[formula] where kinact is the maximal rate of inactivation and KI is the inhibitor concentration that yields half the rate of maximal inactivation (Copeland 2005).
Table 1 and (1A) below provides the myeloperoxidase inhibitory activity for the Examples below in accordance with the above-described assay.

T1 sequence (P05164 279-745 limits assumed): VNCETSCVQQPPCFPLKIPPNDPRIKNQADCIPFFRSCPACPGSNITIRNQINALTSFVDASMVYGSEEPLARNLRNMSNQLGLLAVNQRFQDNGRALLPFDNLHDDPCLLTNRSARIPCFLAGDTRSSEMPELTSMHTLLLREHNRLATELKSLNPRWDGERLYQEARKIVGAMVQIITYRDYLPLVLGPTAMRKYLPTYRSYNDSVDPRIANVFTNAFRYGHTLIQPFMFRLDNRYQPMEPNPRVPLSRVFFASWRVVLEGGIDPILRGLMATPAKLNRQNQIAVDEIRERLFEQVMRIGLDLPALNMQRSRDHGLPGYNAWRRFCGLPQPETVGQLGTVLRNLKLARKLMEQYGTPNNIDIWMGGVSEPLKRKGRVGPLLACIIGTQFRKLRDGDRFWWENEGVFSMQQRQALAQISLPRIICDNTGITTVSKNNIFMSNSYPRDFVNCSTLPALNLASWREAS
T1 sequence (P05164 165-273 limits assumed): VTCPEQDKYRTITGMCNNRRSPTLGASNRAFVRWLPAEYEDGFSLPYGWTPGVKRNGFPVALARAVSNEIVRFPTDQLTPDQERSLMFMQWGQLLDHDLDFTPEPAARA

Row | SMILES | MPO kinact/Ki
1 | COCCn1c(-c2cc(F)ccc2OC(F)(F)F)cc(=O)[nH]c1=S [Example 346] | 5890 1/s per M
2 | COc1cc(OC)cc(-c2cc(=O)[nH]c(=S)n2CC(N)=O)c1 [Example 86, 2-[6-(3,5-dimethoxyphenyl)-4-oxo-2-thioxo-3,4-dihydropyrimidin-1(2H)-yl]acetamide] | 3960 1/s per M
3 | COc1ccc(-c2cc(=O)[nH]c(=S)n2CCNCC(=O)O)c(OC)c1 [Example 243, N-{2-[6-(2,4-dimethoxyphenyl)-4-oxo-2-thioxo-3,4-dihydropyrimidin-1(2H)-yl]ethyl}glycine hydrochloride] | 952 1/s per M
4 | COc1ccc(-c2cc(=O)[nH]c(=S)n2CCNCC(N)=O)c(OC)c1 [Example 242, N~2~-{2-[6-(2,4-dimethoxyphenyl)-4-oxo-2-thioxo-3,4-dihydropyrimidin-1(2H)-yl]ethyl}glycinamide] | 142 1/s per M
5 | COCCn1c(-c2cccc(Cl)c2)cc(=O)[nH]c1=S [Example 300, 6-(3-chlorophenyl)-1-(2-methoxyethyl)-2-thioxo-2,3-dihydropyrimidin-4(1H)-one] | 2460 1/s per M
6 | COc1ccc(-c2cc(=O)[nH]c(=S)n2CCOCCNC(=N)N)c(OC)c1 [Example 140, 1-(2-{2-[6-(2,4-dimethoxyphenyl)-4-oxo-2-thioxo-3,4-dihydropyrimidin-1(2H)-yl]ethoxy}ethyl) guanidine formate] | 10400 1/s per M
7 | COc1ccc(-c2cc(=O)[nH]c(=S)n2Cc2ccncc2)c(OC)c1 [Example 232, 6-(2,4-dimethoxyphenyl)-1-(pyridin-4-ylmethyl)-2-thioxo-2,3-dihydropyrimidin-4(1H)-one] | 4520 1/s per M
8 | COc1cc(OC)c(-c2cc(=O)[nH]c(=S)n2CCN)cc1F [Example 90, 1-(2-aminoethyl)-6-(5-fluoro-2,4-dimethoxyphenyl)-2-thioxo-2,3-dihydropyrimidin-4(1H)-one hydrochloride] | 11600 1/s per M
9 | COc1ccc(Cl)cc1-c1cc(=O)[nH]c(=S)n1CCCNC(=O)CN [Example 149, N-{3-[6-(5-chloro-2-methoxyphenyl)-4-oxo-2-thioxo-3,4-dihydropyrimidin-1(2H)-yl]propyl} glycinamide hydrochloride] | 9770 1/s per M
10 | COCCn1c(-c2ccc(S(C)(=O)=O)cc2)cc(=O)[nH]c1=S [Example 110, 1-(2-methoxyethyl)-6-[4-(methylsulfonyl)phenyl]-2-thioxo-2,3-dihydropyrimidin-4(1H)-one] | 864 1/s per M
11 | COCCn1c(-c2cc(C)cnc2OC)cc(=O)[nH]c1=S [Example 51, 1-(2-methoxyethyl)-6-(2-methoxy-5-methylpyridin-3-yl)-2-thioxo-2,3-dihydropyrimidin-4(1H)-one] | 6180 1/s per M
12 | NCCOc1ccccc1-c1cc(=O)[nH]c(=S)n1CCO [Example 52, 6-[2-(2-aminoethoxy)phenyl]-1-(2-hydroxyethyl)-2-thioxo-2,3-dihydropyrimidin-4(1H)-one formate] | 33.4 1/s per M
13 | CCOc1ccccc1-c1cc(=O)[nH]c(=S)n1CC1CCCO1 (stereo not shown) [Example 102, 6-(2-ethoxyphenyl)-1-(tetrahydrofuran-2-ylmethyl)-2-thioxo-2,3-dihydropyrimidin-4(1H)-one] | 4200 1/s per M
14 | N=C(N)NCCn1c(-c2ccccc2-n2nccn2)cc(=O)[nH]c1=S [Example 130, 1-(2-{4-oxo-2-thioxo-6-[2-(2H-1,2,3-triazol-2-yl)phenyl]-3,4-dihydropyrimidin-1(2H)-yl}ethyl)guanidine hydrochloride] | 4830 1/s per M
15 | COc1ccc(-c2cc(=O)[nH]c(=S)n2Cc2cccnc2)c(OC)c1 [Example 231, 6-(2,4-dimethoxyphenyl)-1-(pyridin-3-ylmethyl)-2-thioxo-2,3-dihydropyrimidin-4(1H)-one] | 1910 1/s per M
16 | COCCn1c(-c2cccc(OC)c2OC)cc(=O)[nH]c1=S [Example 329, 6-(2,3-dimethoxyphenyl)-1-(2-methoxyethyl)-2-thioxo-2,3-dihydropyrimidin-4(1H)-one] | 963 1/s per M
17 | COc1ccc(F)cc1-c1cc(=O)[nH]c(=S)n1CC(N)=O [Example 59, 2-[6-(5-fluoro-2-methoxyphenyl)-4-oxo-2-thioxo-3,4-dihydropyrimidin-1(2H)-yl]acetamide] | 8480 1/s per M
18 | COc1cc(-c2cc(=O)[nH]c(=S)n2CCO)c(OC)cc1C [Example 273, 6-(2,5-dimethoxy-4-methylphenyl)-1-(2-hydroxyethyl)-2-thioxo-2,3-dihydropyrimidin-4(1H)-one] | 8180 1/s per M
19 | COCCn1c(-c2cccc(S(C)(=O)=O)c2)cc(=O)[nH]c1=S [Example 109, 1-(2-methoxyethyl)-6-[3-(methylsulfonyl)phenyl]-2-thioxo-2,3-dihydropyrimidin-4(1H)-one] | 914 1/s per M
20 | NCCCn1c(-c2cccc3ccoc23)cc(=O)[nH]c1=S [Example 34, 1-(3-aminopropyl)-6-(1-benzofuran-7-yl)-2-thioxo-2,3-dihydropyrimidin-4(1H)-one hydrochloride] | 13100 1/s per M
21 | COCCn1c(-c2coc3ccccc23)cc(=O)[nH]c1=S [Example 305, 6-(1-benzofuran-3-yl)-1-(2-methoxyethyl)-2-thioxo-2,3-dihydropyrimidin-4(1H)-one] | 6370 1/s per M
22 | COCCn1c(-c2ccc3ccccc3c2OC)cc(=O)[nH]c1=S [Example 115, 1-(2-methoxyethyl)-6-(1-methoxy-2-naphthyl)-2-thioxo-2,3-dihydropyrimidin-4(1H)-one] | 4380 1/s per M

Same assay, conditions: Table 1A, 2 μM H2O2, pH 7.4

Row | SMILES | MPO kinact/Ki
23 | NC(=O)Cn1c(-c2ccc3c(c2)OCCO3)cc(=O)[nH]c1=S [Example 358, 2-[6-(2,3-dihydro-1,4-benzodioxin-6-yl)-4-oxo-2-thioxo-3,4-dihydropyrimidin-1(2H)-yl]acetamide] | 1710 1/s per M
24 | COc1ccc(-c2cc(=O)[nH]c(=S)n2CCC(=O)NC(=N)N)c(OC)c1 [Example 446, N-carbamimidoyl-3-{6-(2,4-dimethoxyphenyl)-4-oxo-2-thioxo-3,4-dihydropyrimidin-1(2H)-yl]propanamide] | 14200 1/s per M
25 | N=C(N)NCCCn1c(-c2cc(F)ccc2OCCO)cc(=O)[nH]c1=S [Example 407, 1-(3-{6-[5-fluoro-2-(2-hydroxyethoxy)phenyl]-4-oxo-2-thioxo-3,4-dihydropyrimidin-1(2H)-yl}propyl)guanidine] | 18700 1/s per M
26 | COc1ccc(-c2cc(=O)[nH]c(=S)n2CCNC(=O)NC(=N)N)c(OC)c1 [Example 452, 1-carbamimidoyl-3-{2-[6-(2,4-dimethoxyphenyl)-4-oxo-2-thioxo-3,4-dihydropyrimidin-1(2H)-yl]ethyl}urea] | 11600 1/s per M
27 | COc1ccc(F)cc1-c1cc(=O)[nH]c(=S)n1CC(=O)NCCN [Example 371, N-(2-aminoethyl)-2-[6-(5-fluoro-2-methoxyphenyl)-4-oxo-2-thioxo-3,4-dihydropyrimidin-1(2H)-yl]acetamide] | 4570 1/s per M
28 | COC(=O)/N=C(/N)NCCCn1c(-c2cc(Cl)ccc2OC)cc(=O)[nH]c1=S [Example 350, Methyl[amino({3-[6-(5-chloro-2-methoxyphenyl)-4-oxo-2-thioxo-3,4-dihydropyrimidin-1(2H)-yl]propyl}amino)methylidene]carbamate] | 8740 1/s per M
29 | COc1cccc(-c2cc(=O)[nH]c(=S)n2CC(N)=O)c1 [Example 384, 2-[6-(3-methoxyphenyl)-4-oxo-2-thioxo-3,4-dihydropyrimidin-1(2H)-yl]acetamide] | 2930 1/s per M
30 | COc1ccc(Cl)cc1-c1cc(=O)[nH]c(=S)n1C[C@H](C)N [Example 361, 1-[(2S)-2-aminopropyl]-6-(5-chloro-2-methoxyphenyl)-2-thioxo-2,3-dihydropyrimidin-4(1H)-one] | 2060 1/s per M
31 | COCCNC(=O)Cn1c(-c2ccc(OC)cc2OC)cc(=O)[nH]c1=S [Example 436, 2-[6-(2,4-dimethoxyphenyl)-4-oxo-2-thioxo-3,4-dihydropyrimidin-1(2H)-yl]-N-(2-methoxyethyl)acetamide] | 3710 1/s per M

Source: patent US9399626B2, “2-thiopyrimidinones” (Pfizer Inc., priority 2011, dated 2016)
